ChEMBL document CHEMBL1201862, “PubChem BioAssay data set” (2004)
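96-well plates; 48 h exposure; 5 concentrations. Endpoints by linear interpolation between flanking doses. Not reached: highest tested concentration assigned. Abbreviation: GI50, concentration required for 50% inhibition of growth.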 Activity calls are given as the source filed them. No stated cut-off is given here; in the data, active = GI50 up to about 1.1 µM and inactive = higher.

Assays:
Assay in all cases: DTP human tumour cell line panel, 48 h
[1] = system: 786-0
[2] = system: A498
[3] = system: A549
[4] = system: ACHN
[5] = system: CAKI-1
[6] = system: CCRF-CEM
[7] = system: COLO 205
[8] = system: DLD-1
[9] = system: DMS-114
[10] = system: DMS-273
[11] = system: EKVX
[12] = system: HCC 2998
[13] = system: HCT-116
[14] = system: HCT-15
[15] = system: HL-60
[16] = system: HOP-18
[17] = system: HOP-62
[18] = system: HT-29
[19] = system: IGROV-1
[20] = system: K562
[21] = system: KM-20L2
[22] = system: KM12
[23] = system: LOX IMVI
[24] = system: LXFL 529
[25] = system: M14
[26] = system: M19-MEL
[27] = system: MOLT-4
[28] = system: Malme-3M
[29] = system: NCI-H226
[30] = system: NCI-H23
[31] = system: NCI-H460
[32] = system: NCI-H522
[33] = system: OVCAR-3
[34] = system: OVCAR-4
[35] = system: OVCAR-5
[36] = system: OVCAR-8
[37] = system: RPMI-8226
[38] = system: RXF 631
[39] = system: SF-268
[40] = system: SF-295
[41] = system: SK-MEL-28
[42] = system: SK-MEL-2
[43] = system: SK-MEL-5
[44] = system: SK-OV-3
[45] = system: SN12C
[46] = system: SNB-19
[47] = system: SNB-75
[48] = system: SNB-78
[49] = system: SW-620
[50] = system: TK-10
[51] = system: U-251
[52] = system: UACC-257
[53] = system: UACC-62
[54] = system: UO-31
[55] = system: HOP-92
[56] = system: RXF 393
[57] = system: SF-539
[58] = system: SR

Structure (SMILES): O=C(NCCCCNc1cccccc1=O)OCc1ccccc1
- GI50 [1]: > 100 µM (inactive)
- GI50 [2]: > 100 µM (inactive)
- GI50 [3]: > 100 µM (inactive)
- GI50 [4]: > 100 µM (inactive)
- GI50 [5]: > 100 µM (inactive)
- GI50 [6]: > 100 µM (inactive)
- GI50 [7]: > 100 µM (inactive)
- GI50 [8]: > 100 µM (inactive)
- GI50 [9]: 56.4 µM (inactive)
- GI50 [10]: > 100 µM (inactive)
- GI50 [11]: > 100 µM (inactive)
- GI50 [12]: > 100 µM (inactive)
- GI50 [13]: > 100 µM (inactive)
- GI50 [14]: > 100 µM
- GI50 [15]: > 100 µM (inactive)
- GI50 [16]: > 100 µM (inactive)
- GI50 [17]: > 100 µM (inactive)
- GI50 [18]: > 100 µM (inactive)
- GI50 [19]: > 100 µM (inactive)
- GI50 [20]: > 100 µM (inactive)
- GI50 [21]: > 100 µM (inactive)
- GI50 [22]: > 100 µM (inactive)
- GI50 [23]: > 100 µM (inactive)
- GI50 [24]: > 100 µM (inactive)
- GI50 [25]: > 100 µM (inactive)
- GI50 [26]: > 100 µM (inactive)
- GI50 [27]: > 100 µM (inactive)
- GI50 [28]: > 100 µM (inactive)
- GI50 [29]: > 100 µM (inactive)
- GI50 [30]: > 100 µM (inactive)
- GI50 [31]: > 100 µM (inactive)
- GI50 [32]: > 100 µM (inactive)
- GI50 [33]: > 100 µM (inactive)
- GI50 [34]: > 100 µM (inactive)
- GI50 [35]: > 100 µM (inactive)
- GI50 [36]: 54 µM (inactive)
- GI50 [37]: > 100 µM (inactive)
- GI50 [38]: > 100 µM (inactive)
- GI50 [39]: > 100 µM (inactive)
- GI50 [40]: > 100 µM (inactive)
- GI50 [41]: > 100 µM (inactive)
- GI50 [42]: > 100 µM (inactive)
- GI50 [43]: 48.1 µM (inactive)
- GI50 [44]: > 100 µM (inactive)
- GI50 [45]: > 100 µM (inactive)
- GI50 [46]: > 100 µM (inactive)
- GI50 [47]: > 100 µM (inactive)
- GI50 [48]: > 100 µM (inactive)
- GI50 [49]: > 100 µM (inactive)
- GI50 [50]: > 100 µM (inactive)
- GI50 [51]: > 100 µM (inactive)
- GI50 [52]: > 100 µM (inactive)
- GI50 [53]: > 100 µM (inactive)
- GI50 [54]: 58.5 µM (inactive)

Structure (SMILES): CC(C)(C)c1cc2ccc(C(N)=O)cc2c(=O)[nH]1
- GI50 [1]: > 100 µM (inactive)
- GI50 [2]: > 100 µM (inactive)
- GI50 [3]: > 100 µM (inactive)
- GI50 [4]: > 100 µM (inactive)
- GI50 [5]: 80.2 µM (inactive)
- GI50 [6]: > 100 µM (inactive)
- GI50 [7]: > 100 µM (inactive)
- GI50 [8]: > 100 µM (inactive)
- GI50 [9]: > 100 µM (inactive)
- GI50 [10]: > 100 µM (inactive)
- GI50 [11]: 82.4 µM (inactive)
- GI50 [12]: > 100 µM (inactive)
- GI50 [13]: 69.7 µM (inactive)
- GI50 [14]: > 100 µM
- GI50 [15]: 79.8 µM (inactive)
- GI50 [16]: > 100 µM (inactive)
- GI50 [17]: > 100 µM (inactive)
- GI50 [55]: 95.1 µM (inactive)
- GI50 [18]: > 100 µM (inactive)
- GI50 [19]: > 100 µM (inactive)
- GI50 [20]: > 100 µM (inactive)
- GI50 [21]: > 100 µM (inactive)
- GI50 [22]: 59.3 µM (inactive)
- GI50 [23]: 62.7 µM (inactive)
- GI50 [24]: > 100 µM (inactive)
- GI50 [25]: > 100 µM (inactive)
- GI50 [26]: > 100 µM (inactive)
- GI50 [27]: > 100 µM (inactive)
- GI50 [28]: > 100 µM (inactive)
- GI50 [29]: 56 µM (inactive)
- GI50 [30]: > 100 µM (inactive)
- GI50 [31]: > 100 µM (inactive)
- GI50 [32]: > 100 µM (inactive)
- GI50 [33]: > 100 µM (inactive)
- GI50 [34]: > 100 µM (inactive)
- GI50 [35]: > 100 µM (inactive)
- GI50 [36]: > 100 µM (inactive)
- GI50 [56]: 44.9 µM (inactive)
- GI50 [38]: > 100 µM (inactive)
- GI50 [39]: > 100 µM (inactive)
- GI50 [40]: > 100 µM (inactive)
- GI50 [57]: 46.8 µM (inactive)
- GI50 [41]: > 100 µM (inactive)
- GI50 [42]: > 100 µM (inactive)
- GI50 [43]: > 100 µM (inactive)
- GI50 [44]: > 100 µM (inactive)
- GI50 [45]: > 100 µM (inactive)
- GI50 [46]: > 100 µM (inactive)
- GI50 [47]: 27.2 µM (inactive)
- GI50 [48]: > 100 µM (inactive)
- GI50 [58]: > 100 µM (inactive)
- GI50 [49]: > 100 µM (inactive)
- GI50 [50]: > 100 µM (inactive)
- GI50 [51]: 51.3 µM (inactive)
- GI50 [52]: > 100 µM (inactive)
- GI50 [53]: > 100 µM (inactive)
- GI50 [54]: 63.8 µM (inactive)

Structure (SMILES): COC(=O)C1CC2c3c(c4ccccc4n3C)CC(C1=O)N2C (stereo unspecified)
- GI50 [1]: 47.5 µM (inactive)
- GI50 [2]: 28.2 µM (inactive)
- GI50 [3]: 36.4 µM (inactive)
- GI50 [4]: 35.7 µM (inactive)
- GI50 [5]: 43.5 µM (inactive)
- GI50 [6]: 34.6 µM (inactive)
- GI50 [7]: 17.3 µM (inactive)
- GI50 [8]: 40.9 µM (inactive)
- GI50 [9]: 21.2 µM (inactive)
- GI50 [10]: 20.2 µM (inactive)
- GI50 [11]: 57.1 µM (inactive)
- GI50 [12]: 34.8 µM (inactive)
- GI50 [13]: 33 µM (inactive)
- GI50 [14]: 22.3 µM
- GI50 [15]: 27.3 µM (inactive)
- GI50 [16]: 40 µM (inactive)
- GI50 [55]: 74.3 µM (inactive)
- GI50 [18]: 42.1 µM (inactive)
- GI50 [19]: 52.8 µM (inactive)
- GI50 [20]: 40.1 µM (inactive)
- GI50 [21]: 39.8 µM (inactive)
- GI50 [22]: 37.8 µM (inactive)
- GI50 [23]: 78.9 µM (inactive)
- GI50 [24]: 39 µM (inactive)
- GI50 [25]: 37.8 µM (inactive)
- GI50 [26]: 49.3 µM (inactive)
- GI50 [27]: 29 µM (inactive)
- GI50 [28]: 43.9 µM (inactive)
- GI50 [29]: 50.6 µM (inactive)
- GI50 [30]: 50.8 µM (inactive)
- GI50 [31]: 45.3 µM (inactive)
- GI50 [32]: 17.3 µM (inactive)
- GI50 [33]: 34.8 µM (inactive)
- GI50 [34]: 37.3 µM (inactive)
- GI50 [35]: > 100 µM (inactive)
- GI50 [36]: 34.5 µM (inactive)
- GI50 [38]: 63.4 µM (inactive)
- GI50 [39]: 68.9 µM (inactive)
- GI50 [40]: > 100 µM (inactive)
- GI50 [57]: 32.5 µM (inactive)
- GI50 [41]: 51.9 µM (inactive)
- GI50 [42]: > 100 µM (inactive)
- GI50 [43]: 25.1 µM (inactive)
- GI50 [44]: 51.4 µM (inactive)
- GI50 [45]: 67.8 µM (inactive)
- GI50 [46]: 75.9 µM (inactive)
- GI50 [47]: 31.5 µM (inactive)
- GI50 [48]: 47 µM (inactive)
- GI50 [58]: 27.5 µM (inactive)
- GI50 [49]: 34.8 µM (inactive)
- GI50 [50]: 40.2 µM (inactive)
- GI50 [51]: 49.8 µM (inactive)
- GI50 [52]: 32.8 µM (inactive)
- GI50 [53]: 49.5 µM (inactive)
- GI50 [54]: 21.4 µM (inactive)
